Assay [1] has as its system various tumour cell lines. The note with it: various tumour cell lines in culture; cited from earlier work.
Assay [2] has as its system H460 cells. Kind of assay: Sensitivity of transfected H460 cells to taxotere, cisplatin or camptothecin (colony count, Example 2). The format is cell-based, human. The settings on record: for apoptotic effect induced by the GAP (170-702) construction on addition of the product: added to culture medium of human tumour cells transfected with GAP(170-702), at concentrations without effect on cell viability; for apoptotic effect induced by the transfer of the Grb3-3 gene on addition of the product: added to culture medium of human tumour cells transfected with Grb3-3, at concentrations without effect on cell viability; for effect of the product alone on cell viability: concentrations used in the combination, human tumour cells. The text has this:
H460 cells transfected as described in Example 1 are subjected during selection by geneticin to a treatment for several days at different concentrations of taxotere, of cisplatin or of camptothecin. The H460/Neo^R cells and which are resistant to the chemotherapeutic agents are quantified as described in Example 1. The sensitivity to taxotere (A), to cisplatin (B) or to camptothecin (C) of the H460 cells transfected with pSV2-Neo (●), pSV2-Neo+pSV2-GAP[170-702] (▴) or pSV2-Neo+pSV2-Grb3-3 (▾) is depicted relative to cells transfected identically but in the absence of treatment with the chemotherapeutic agents. The results of an experiment which is representative of quantification of the number of colony after the different treatments mentioned are summarized in FIG. 2.

Assay [3] concerns H460 cells. Kind of assay: Sensitivity of isolated H460 clones transfected with pcDNA3 or pcDNA3-p53WT to taxotere (Example 3). The format is cell-based, human. The text has this:
H460 cells are transfected with cDNA coding for the wild-type p53 protein (p53^WT) placed in the plasmid pcDNA3 under the control of the CMV promoter. Plasmid pcDNA3 also contains the Neo gene placed under the control of the SV40 promoter. Cells transfected with pcDNA3 or pcDNA3-p53^WT are selected and isolated as described in Example 1. In the cells transfected with pcDNA3-p53^WT and which are resistant to geneticin, the presence of p53 is verified by western blotting using specific antibodies. FIG. 3 summarizes the results of a representative experiment in which are depicted, on the one hand the number of colonies obtained after pcDNA3 or pcDNA3-p53^WT transfection (A), and on the other hand the sensitivity of the clones isolated to a treatment with taxotere (B).

Here are results for four molecules from patent US7884082B2, “Combined therapeutical treatment of hyperproliferative diseases” (Aventis Pharma SA, priority 1995, dated 2011).

With `CC(=O)O[C@H]1C(=O)[C@@]2(C)[C@H]([C@H](OC(=O)c3ccccc3)[C@]3(O)C[C@H](OC(=O)[C@H](O)[C@@H](NC(=O)c4ccccc4)c4ccccc4)C(C)=C1C3(C)C)[C@]1(OC(C)=O)CO[C@@H]1C[C@@H]2O` [Taxol, 4,10β-diacetoxy-2α-benzoyloxy-5β,20-epoxy-1β,7β-dihydroxy-9-oxo-11-taxen-13α-yl (2R,3S)-3′-benzoylamino-3′-phenyl-2′-hydroxypropionate], the induction of apoptosis result in assay [1] is listed as “induces apoptosis”.
As for `CC[C@@]1(O)C(=O)OCc2c1cc1n(c2=O)Cc2cc3ccccc3nc2-1` [camptothecin], in assay [2], the “apoptotic effect induced by the GAP (170-702) construction on addition of the product” value (“apoptotic effect induced by the GAP” for short) is recorded as “very greatly increased”, the “apoptotic effect induced by the transfer of the Grb3-3 gene on addition of the product” value (“apoptotic effect induced by the transfer” below) is on record as “very greatly increased” and the “effect of the product alone on cell viability” value (“effect of the product alone” below) is “without effect on cell viability”.
Take `N.N.[Cl][Pt][Cl]` [cisplatin]: in assay [2], the “apoptotic effect induced by the GAP” value is recorded as “very greatly increased”, the “apoptotic effect induced by the transfer” value is “very greatly increased” and the “effect of the product alone” value is on record as “without effect on cell viability”.
On to `CC(=O)O[C@@]12CO[C@@H]1C[C@H](O)[C@@]1(C)C(=O)[C@H](O)C3=C(C)[C@@H](OC(=O)[C@H](O)[C@@H](NC(=O)OC(C)(C)C)c4ccccc4)C[C@@](O)([C@@H](OC(=O)c4ccccc4)[C@H]21)C3(C)C` [taxotere, 4-acetoxy-2α-benzoyloxy-5β,20-epoxy-1β,7β,10β-trihydroxy-9-oxo-11-taxen-13α-yl (2R,3S)-3′-t-butoxycarbonylamino-3′-phenyl-2′-hydroxypropionate], for which, in assay [2], the “apoptotic effect induced by the GAP” value was “very greatly increased”, the “apoptotic effect induced by the transfer” value is on record as “very greatly increased” and the “effect of the product alone” value is “without effect on cell viability”. Moreover, the “effect of taxotere on H460 clones expressing wild-type p53” value in assay [3] (H460 clones resistant to the effect of p53, increasing doses of taxotere) is “cells die”. Further, the “effect of taxotere on cells that do not express wild-type p53” value in assay [3] (same concentrations as those killing p53-expressing clones) is listed as “completely ineffective”.
